The source of these data is patent US20180170904A1, “PYRIDIN-3-YL ACETIC ACID DERIVATIVES AS INHIBITORS OF HUMAN IMMUNODEFICIENCY VIRUS REPLICATION” (priority 2015, published 2018).

One assay concerns NL-RLuc virus (recombinant NL4-3 proviral clone with Renilla Luciferase gene). Description: Inhibition of HIV replication (NL-RLuc reporter virus in MT-2 cells). The settings on record: Renilla, NL43, 120 h, read-out: Activity. Format: cell-based. In outline:
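Antiviral EC50 came from luciferase signal after 5-day multicycle replication of NL-RLuc virus in MT-2 cells with serially diluted compound (RPMI 1640, 10% heat-inactivated FBS), fitted by the median effect equation over at least 2 experiments.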
Consider `Cc1nc(C)c([C@H](OC(C)(C)C)C(=O)O)c(N2CC(C)(C)C2)c1-c1ccc(C(=O)NCc2ccccc2)cc1` [Example 57, (S)-2-(5-(4-(Benzylcarbamoyl)phenyl)-4-(3,3-dimethylazetidin-1-yl)-2,6-dimethylpyridin-3-yl)-2-(tert-butoxy)acetic acid], for which the EC50 was above 1 µM. On to `Cc1nc(C)c([C@H](OC(C)(C)C)C(=O)O)c(N2CCC(C)CC2)c1-c1ccc(C(=O)NCc2ccccc2)cc1` [Example 58, (S)-2-(5-(4-(Benzylcarbamoyl)phenyl)-2,6-dimethyl-4-(4-methylpiperidin-1-yl)pyridin-3-yl)-2-(tert-butoxy)acetic acid], for which the EC50 is below 0.1 µM. Turning to `Cc1nc(C)c([C@H](OC(C)(C)C)C(=O)O)c(N2CC(C(C)C)C2)c1-c1ccc(C(=O)NCc2ccccc2)cc1` [Example 59, (S)-2-(5-(4-(Benzylcarbamoyl)phenyl)-4-(3-isopropylazetidin-1-yl)-2,6-dimethylpyridin-3-yl)-2-(tert-butoxy)acetic acid], the EC50 is above 1 µM.

As for `COC1(C)CCN(c2c(-c3ccc(C(=O)NCc4ccccc4)cc3)c(C)nc(C)c2[C@H](OC(C)(C)C)C(=O)O)CC1` [Example 60, (S)-2-(5-(4-(Benzylcarbamoyl)phenyl)-4-(4-methoxy-4-methylpiperidin-1-yl)-2,6-dimethylpyridin-3-yl)-2-(tert-butoxy)acetic acid], the EC50 is below 0.1 µM.

As to `Cc1nc(C)c([C@H](OC(C)(C)C)C(=O)O)c(N2CCC(C)(C#N)CC2)c1-c1ccc(C(=O)NCc2ccccc2)cc1` [Example 61, (S)-2-(5-(4-(Benzylcarbamoyl)phenyl)-4-(4-cyano-4-methylpiperidin-1-yl)-2,6-dimethylpyridin-3-yl)-2-(tert-butoxy)acetic acid], the EC50 is 0.1 to 1 µM.

As to `Cc1nc(C)c([C@H](OC(C)(C)C)C(=O)O)c(N2CCC(c3ccccc3)CC2)c1-c1ccc(C(=O)NCc2ccccc2)cc1` [Example 62, (S)-2-(5-(4-(Benzylcarbamoyl)phenyl)-2,6-dimethyl-4-(4-phenylpiperidin-1-yl)pyridin-3-yl)-2-(tert-butoxy)acetic acid], the EC50 was above 1 µM. For the compound `CC(C)=C1CCN(c2c(-c3ccc(C(=O)NCc4ccccc4)cc3)c(C)nc(C)c2[C@H](OC(C)(C)C)C(=O)O)CC1` [Example 63, (S)-2-(5-(4-(Benzylcarbamoyl)phenyl)-2,6-dimethyl-4-(4-(propan-2-ylidene)piperidin-1-yl)pyridin-3-yl)-2-(tert-butoxy)acetic acid], the EC50 is 0.1 to 1 µM. For `Cc1nc(C)c([C@H](OC(C)(C)C)C(=O)O)c(N2CCC(Cc3ccccc3)CC2)c1-c1ccc(C(=O)NCc2ccccc2)cc1` [Example 64, (S)-2-(5-(4-(Benzylcarbamoyl)phenyl)-4-(4-benzylpiperidin-1-yl)-2,6-dimethylpyridin-3-yl)-2-(tert-butoxy)acetic acid], the EC50 lay within 0.1 to 1 µM. `Cc1nc(C)c([C@H](OC(C)(C)C)C(=O)O)c(N2CCC(C)(F)CC2)c1-c1ccc(C(=O)NCc2ccccc2)cc1` [Example 65, (S)-2-(5-(4-(Benzylcarbamoyl)phenyl)-4-(4-fluoro-4-methylpiperidin-1-yl)-2,6-dimethylpyridin-3-yl)-2-(tert-butoxy)acetic acid]: the EC50 is below 0.1 µM. In the case of `Cc1nc(C)c([C@H](OC(C)(C)C)C(=O)O)c(N2CCC(C)(C)CC2)c1-c1ccc(C(=O)NCc2ccccn2)cc1` [Example 66, (S)-2-(tert-Butoxy)-2-(4-(4,4-dimethylpiperidin-1-yl)-2,6-dimethyl-5-(4-((pyridin-2-ylmethyl)carbamoyl)phenyl)pyridin-3-yl)acetic acid], the EC50 was below 0.1 µM.

Regarding `CCOc1cc(F)cc(F)c1CNC(=O)c1ccc(-c2c(C)nc(C)c([C@H](OC(C)(C)C)C(=O)O)c2N2CCC(C)(C)CC2)cc1` [Example 67, (S)-2-(tert-Butoxy)-2-(4-(4,4-dimethylpiperidin-1-yl)-5-(4-((2-ethoxy-4,6-difluorobenzyl)carbamoyl)phenyl)-2,6-dimethylpyridin-3-yl)acetic acid], the EC50 was below 0.1 µM. As for `Cc1nc(C)c([C@H](OC(C)(C)C)C(=O)O)c(N2CCC(C)(C)CC2)c1-c1ccc(C(=O)NCc2c(F)cc(F)cc2F)cc1` [Example 69, (S)-2-(tert-Butoxy)-2-(4-(4,4-dimethylpiperidin-1-yl)-2,6-dimethyl-5-(4-((2,4,6-trifluorobenzyl)carbamoyl)phenyl)pyridin-3-yl)acetic acid], the EC50 is below 0.1 µM. In the case of `Cc1nc(C)c([C@H](OC(C)(C)C)C(=O)O)c(N2CCC(C)(C)CC2)c1-c1ccc(N)cc1` [Example 70, (S)-2-(5-(4-Aminophenyl)-4-(4,4-dimethylpiperidin-1-yl)-2,6-dimethylpyridin-3-yl)-2-(tert-butoxy)acetic acid], the EC50 lay in the range of 0.1 to 1 µM. With `CCOC(=O)Nc1ccc(-c2c(C)nc(C)c([C@H](OC(C)(C)C)C(=O)O)c2N2CCC(C)(C)CC2)cc1` [Example 71, (S)-2-(tert-Butoxy)-2-(4-(4,4-dimethylpiperidin-1-yl)-5-(4-((ethoxycarbonyl)amino)phenyl)-2,6-dimethylpyridin-3-yl)acetic acid], the EC50 was below 0.1 µM. For the compound `Cc1nc(C)c([C@H](OC(C)(C)C)C(=O)O)c(N2CCC(C)(C)CC2)c1-c1ccc(NC(=O)Cc2ccc(F)cc2)cc1` [Example 72, (S)-2-(tert-Butoxy)-2-(4-(4,4-dimethylpiperidin-1-yl)-5-(4-(2-(4-fluorophenyl)acetamido)phenyl)-2,6-dimethylpyridin-3-yl)acetic acid], the EC50 was below 0.1 µM. `Cc1nc(C)c([C@H](OC(C)(C)C)C(=O)O)c(N2CCC(C)(C)CC2)c1-c1ccc(NCCc2ccc(F)cc2)cc1` [Example 73, (S)-2-(tert-Butoxy)-2-(4-(4,4-dimethylpiperidin-1-yl)-5-(4-((4-fluorophenethyl)amino)phenyl)-2,6-dimethylpyridin-3-yl)acetic acid]: the EC50 was below 0.1 µM. Consider `Cc1nc(C)c([C@H](OC(C)(C)C)C(=O)O)c(N2CCC(C)(C)CC2)c1-c1ccc(N(CCc2ccc(F)cc2)C(O)Cc2ccc(F)cc2)cc1` (stereo partly drawn) [Example 74, (2S)-2-(tert-Butoxy)-2-(4-(4,4-dimethylpiperidin-1-yl)-5-(4-((4-fluorophenethyl)(2-(4-fluorophenyl)-1-hydroxyethyl)amino)phenyl)-2,6-dimethylpyridin-3-yl)acetic acid], for which the EC50 is below 0.1 µM. As to `CC(=O)N(CCc1ccc(F)cc1)c1ccc(-c2c(C)nc(C)c([C@H](OC(C)(C)C)C(=O)O)c2N2CCC(C)(C)CC2)cc1` [Example 75, (S)-2-(tert-Butoxy)-2-(4-(4,4-dimethylpiperidin-1-yl)-5-(4-(N-(4-fluorophenethyl)acetamido)phenyl)-2,6-dimethylpyridin-3-yl)acetic acid], the EC50 is below 0.1 µM. Same read-out and setting: to `Cc1nc(C)c([C@H](OC(C)(C)C)C(=O)O)c(N2CCC(C)(C)CC2)c1-c1ccc(N(C)CCc2ccc(F)cc2)cc1` [Example 76, (S)-2-(tert-Butoxy)-2-(4-(4,4-dimethylpiperidin-1-yl)-5-(4-((4-fluorophenethyl)(methyl)amino)phenyl)-2,6-dimethylpyridin-3-yl)acetic acid] belongs below 0.1 µM; to `Cc1nc(C)c([C@H](OC(C)(C)C)C(=O)O)c(N2CCC(C)(C)CC2)c1-c1ccc(N(CCO)CCc2ccc(F)cc2)cc1` [Example 77, (S)-2-(tert-Butoxy)-2-(4-(4,4-dimethylpiperidin-1-yl)-5-(4-((4-fluorophenethyl)(2-hydroxyethyl)amino)phenyl)-2,6-dimethylpyridin-3-yl)acetic acid], below 0.1 µM; to `Cc1nc(C)c([C@H](OC(C)(C)C)C(=O)O)c(N2CCC(C)(C)CC2)c1-c1ccc(SCCc2ccc(F)cc2)cc1` [Example 78, (S)-2-(tert-Butoxy)-2-(4-(4,4-dimethylpiperidin-1-yl)-5-(4-((4-fluorophenethyl)thio)phenyl)-2,6-dimethylpyridin-3-yl)acetic acid], below 0.1 µM.

Regarding `Cc1nc(C)c([C@H](OC(C)(C)C)C(=O)O)c(N2CCC(C)(C)CC2)c1-c1ccc(S(=O)(=O)CCc2ccc(F)cc2)cc1` [Example 79, (S)-2-(tert-Butoxy)-2-(4-(4,4-dimethylpiperidin-1-yl)-5-(4-((4-fluorophenethyl)sulfonyl)phenyl)-2,6-dimethylpyridin-3-yl)acetic acid], the EC50 was below 0.1 µM.

For `Cc1nc(C)c([C@H](OC(C)(C)C)C(=O)O)c(N2CCC(C)(C)CC2)c1-c1ccc(/S(CCc2ccc(F)cc2)=N/C(=O)OC(C)(C)C)cc1` (stereo partly drawn) [Example 80, (2S)-2-(tert-Butoxy)-2-(5-(4-((E)-N-(tert-butoxycarbonyl)-S-(4-fluorophenethyl)sulfinimidoyl)phenyl)-4-(4,4-dimethylpiperidin-1-yl)-2,6-dimethylpyridin-3-yl)acetic acid], the EC50 is below 0.1 µM. `Cc1nc(C)c([C@H](OC(C)(C)C)C(=O)O)c(N2CCC(C)(C)CC2)c1-c1ccc(S(=O)(CCc2ccc(F)cc2)=NC(=O)OC(C)(C)C)cc1` (stereo partly drawn) [Example 81, (2S)-2-(tert-Butoxy)-2-(5-(4-(N-(tert-butoxycarbonyl)-2-(4-fluorophenyl)ethylsulfonimidoyl)phenyl)-4-(4,4-dimethylpiperidin-1-yl)-2,6-dimethylpyridin-3-yl)acetic acid]: the EC50 is below 0.1 µM. On to `Cc1nc(C)c([C@H](OC(C)(C)C)C(=O)O)c(N2CCC(C)(C)CC2)c1-c1ccc(CO)cc1` [Example 82, (S)-2-(tert-Butoxy)-2-(4-(4,4-dimethylpiperidin-1-yl)-5-(4-(hydroxymethyl)phenyl)-2,6-dimethylpyridin-3-yl)acetic acid], for which the EC50 is below 0.1 µM. With `Cc1nc(C)c([C@H](OC(C)(C)C)C(=O)O)c(N2CCC(C)(C)CC2)c1-c1ccc(C=O)cc1` [Example 83, (S)-2-(tert-Butoxy)-2-(4-(4,4-dimethylpiperidin-1-yl)-5-(4-formylphenyl)-2,6-dimethylpyridin-3-yl)acetic acid], the EC50 is below 0.1 µM.

Staying with this assay, now noted: Renilla, NL43, 120 h, read-out: EC50 μM.
As for `Cc1nc(C)c([C@H](OC(C)(C)C)C(=O)O)c(N2CC(C)(C)C2)c1-c1ccc(C(=O)NCc2ccccc2)cc1` [Example 57, (S)-2-(5-(4-(Benzylcarbamoyl)phenyl)-4-(3,3-dimethylazetidin-1-yl)-2,6-dimethylpyridin-3-yl)-2-(tert-butoxy)acetic acid], the EC50 came to 2.54 µM. For the compound `Cc1nc(C)c([C@H](OC(C)(C)C)C(=O)O)c(N2CCC(C)(C)CC2)c1-c1ccc(C(=O)NCc2c(F)cc(F)cc2F)cc1` [Example 69, (S)-2-(tert-Butoxy)-2-(4-(4,4-dimethylpiperidin-1-yl)-2,6-dimethyl-5-(4-((2,4,6-trifluorobenzyl)carbamoyl)phenyl)pyridin-3-yl)acetic acid], the EC50 is 0.004 µM. As to `Cc1nc(C)c([C@H](OC(C)(C)C)C(=O)O)c(N2CCC(C)(C)CC2)c1-c1ccc(SCCc2ccc(F)cc2)cc1` [Example 78, (S)-2-(tert-Butoxy)-2-(4-(4,4-dimethylpiperidin-1-yl)-5-(4-((4-fluorophenethyl)thio)phenyl)-2,6-dimethylpyridin-3-yl)acetic acid], the EC50 came out at 0.016 µM.
